# Data from the kinase profiling compilation of Christmann-Franck et al. (2016).
# Assays:
# Test in all cases: KINOMEscan competition binding
# [1] = target: AXL (human) (UniProt P30530); conditions: compound 1.0 µM
# [2] = target: CDK16 (human) (UniProt Q00536); conditions: compound 1.0 µM
# [3] = target: CDK19 (human) (UniProt Q9BWU1); conditions: compound 1.0 µM
# [4] = target: CDK4 CCND1 (human) (UniProt P11802+P24385); conditions: compound 1.0 µM
# [5] = target: CLK4 (human) (UniProt Q9HAZ1); conditions: compound 1.0 µM
# [6] = target: CSNK1A1L (human) (UniProt Q8N752); conditions: compound 1.0 µM
# [7] = target: DAPK2 (human) (UniProt Q9UIK4); conditions: compound 1.0 µM
# [8] = test system: EGFR (human), P00533 [A750P; 747-749 del]; conditions: compound 1.0 µM
# [9] = test system: EGFR (human), P00533 [L861Q]; conditions: compound 1.0 µM
# [10] = test system: EGFR (human), P00533 [P753S; 747-752 del]; conditions: compound 1.0 µM
# [11] = test system: EGFR (human), P00533 [T790M/L858R]; conditions: compound 1.0 µM
# [12] = test system: EGFR (human), P00533 [T790M]; conditions: compound 1.0 µM
# [13] = test system: EIF2AK4 KD2 (human), Q9P2K8 [S808G]; conditions: compound 1.0 µM
# [14] = target: EPHA2 (human) (UniProt P29317); conditions: compound 1.0 µM
# Chain of EPHA2 (human) (P29317 whole entry, looked up): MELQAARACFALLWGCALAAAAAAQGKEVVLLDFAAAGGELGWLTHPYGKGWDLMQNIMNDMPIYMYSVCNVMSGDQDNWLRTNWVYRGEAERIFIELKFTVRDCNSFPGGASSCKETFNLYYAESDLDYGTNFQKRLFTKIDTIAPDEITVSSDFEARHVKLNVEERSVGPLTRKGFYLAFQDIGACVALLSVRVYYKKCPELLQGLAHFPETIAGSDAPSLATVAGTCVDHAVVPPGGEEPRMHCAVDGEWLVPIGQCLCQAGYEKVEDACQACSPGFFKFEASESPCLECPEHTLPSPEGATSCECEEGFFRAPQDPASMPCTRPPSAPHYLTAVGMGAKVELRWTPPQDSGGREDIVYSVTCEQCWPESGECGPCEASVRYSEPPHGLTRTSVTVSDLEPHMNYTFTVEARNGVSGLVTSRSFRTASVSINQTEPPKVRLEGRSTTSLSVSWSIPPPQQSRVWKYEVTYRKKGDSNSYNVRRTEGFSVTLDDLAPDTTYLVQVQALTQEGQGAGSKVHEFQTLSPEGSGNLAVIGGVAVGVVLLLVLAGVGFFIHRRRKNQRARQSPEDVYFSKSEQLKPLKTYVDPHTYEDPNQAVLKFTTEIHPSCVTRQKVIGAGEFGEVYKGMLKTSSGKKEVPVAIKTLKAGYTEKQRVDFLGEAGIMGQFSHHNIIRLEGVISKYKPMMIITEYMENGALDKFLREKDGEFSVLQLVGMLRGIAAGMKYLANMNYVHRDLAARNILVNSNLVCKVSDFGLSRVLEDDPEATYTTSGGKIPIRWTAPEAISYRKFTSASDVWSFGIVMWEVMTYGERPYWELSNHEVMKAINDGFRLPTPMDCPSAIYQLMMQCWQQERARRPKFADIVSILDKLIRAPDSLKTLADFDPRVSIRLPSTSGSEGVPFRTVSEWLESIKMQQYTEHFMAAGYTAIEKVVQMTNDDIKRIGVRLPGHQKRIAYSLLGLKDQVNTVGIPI
# [15] = target: EPHA7 (human) (UniProt Q15375); conditions: compound 1.0 µM
# [16] = target: EPHB4 (human) (UniProt P54760); conditions: compound 1.0 µM
# [17] = target: FGFR4 (human) (UniProt P22455); conditions: compound 1.0 µM
# [18] = test system: FLT3 (human), P36888 [K663Q]; conditions: compound 1.0 µM
# [19] = target: HIPK4 (human) (UniProt Q8NE63); conditions: compound 1.0 µM
# [20] = target: INSR (human) (UniProt P06213); conditions: compound 1.0 µM
# [21] = target: MAPK12 (human) (UniProt P53778); conditions: compound 1.0 µM
# Chain of MAPK12 (human) (P53778 whole entry, looked up): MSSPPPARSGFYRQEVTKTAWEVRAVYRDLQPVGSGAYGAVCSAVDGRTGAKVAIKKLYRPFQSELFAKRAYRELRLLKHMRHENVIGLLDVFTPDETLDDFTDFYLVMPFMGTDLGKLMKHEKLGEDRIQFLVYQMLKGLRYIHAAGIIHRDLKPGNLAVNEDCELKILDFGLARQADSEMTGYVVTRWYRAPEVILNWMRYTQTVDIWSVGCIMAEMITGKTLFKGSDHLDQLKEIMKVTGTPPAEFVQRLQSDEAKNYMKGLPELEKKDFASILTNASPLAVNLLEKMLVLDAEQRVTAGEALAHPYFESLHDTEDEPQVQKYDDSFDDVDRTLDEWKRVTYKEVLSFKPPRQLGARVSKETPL
# [22] = target: MAPK14 (human) (UniProt Q16539); conditions: compound 1.0 µM
# [23] = target: MAPKAPK2 (human) (UniProt P49137); conditions: compound 1.0 µM
# [24] = target: MARK2 (human) (UniProt Q7KZI7); conditions: compound 1.0 µM
# Chain of MARK2 (human) (Q7KZI7 whole entry, looked up): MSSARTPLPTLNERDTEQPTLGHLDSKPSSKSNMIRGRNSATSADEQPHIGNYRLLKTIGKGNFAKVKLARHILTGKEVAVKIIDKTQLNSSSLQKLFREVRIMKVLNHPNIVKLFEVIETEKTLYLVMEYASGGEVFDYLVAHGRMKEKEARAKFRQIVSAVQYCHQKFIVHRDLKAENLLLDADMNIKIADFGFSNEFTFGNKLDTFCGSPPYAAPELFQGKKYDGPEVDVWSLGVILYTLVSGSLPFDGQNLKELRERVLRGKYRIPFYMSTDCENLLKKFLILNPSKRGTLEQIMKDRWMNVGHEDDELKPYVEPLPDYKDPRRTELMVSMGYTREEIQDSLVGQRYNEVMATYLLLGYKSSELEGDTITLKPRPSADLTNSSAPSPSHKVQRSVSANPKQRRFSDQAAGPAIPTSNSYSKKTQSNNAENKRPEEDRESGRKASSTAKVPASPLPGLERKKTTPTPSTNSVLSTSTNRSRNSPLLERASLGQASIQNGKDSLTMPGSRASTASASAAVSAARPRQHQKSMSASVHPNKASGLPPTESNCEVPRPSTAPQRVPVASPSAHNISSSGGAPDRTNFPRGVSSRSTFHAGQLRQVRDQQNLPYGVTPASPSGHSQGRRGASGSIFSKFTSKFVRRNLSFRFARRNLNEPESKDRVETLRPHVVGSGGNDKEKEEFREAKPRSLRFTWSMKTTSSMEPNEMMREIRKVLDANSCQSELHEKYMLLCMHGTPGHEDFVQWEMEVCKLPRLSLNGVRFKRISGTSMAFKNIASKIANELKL
# [25] = target: MET (human) (UniProt P08581); conditions: compound 1.0 µM
# [26] = target: MST1R (human) (UniProt Q04912); conditions: compound 1.0 µM
# [27] = target: MST4 (human) (UniProt Q9P289); conditions: compound 1.0 µM
# [28] = target: MTOR (human) (UniProt P42345); conditions: compound 1.0 µM
# [29] = target: MYLK4 (human) (UniProt Q86YV6); conditions: for kinase still bound, per cent of control: compound 1.0 µM
# Chain of MYLK4 (human) (Q86YV6 whole entry, looked up): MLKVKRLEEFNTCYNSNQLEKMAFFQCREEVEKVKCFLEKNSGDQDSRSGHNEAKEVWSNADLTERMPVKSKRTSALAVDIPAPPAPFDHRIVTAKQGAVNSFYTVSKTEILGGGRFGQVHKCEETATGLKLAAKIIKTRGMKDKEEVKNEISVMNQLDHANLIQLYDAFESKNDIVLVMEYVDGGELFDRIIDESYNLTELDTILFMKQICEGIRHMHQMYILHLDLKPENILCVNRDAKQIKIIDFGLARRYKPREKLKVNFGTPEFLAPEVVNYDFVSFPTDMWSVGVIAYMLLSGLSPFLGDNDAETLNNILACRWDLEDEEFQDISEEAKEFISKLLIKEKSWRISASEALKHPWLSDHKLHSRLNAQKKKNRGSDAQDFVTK
# [30] = target: MYO3A (human) (UniProt Q8NEV4); conditions: compound 1.0 µM
# [31] = target: PAK2 (human) (UniProt Q13177); conditions: compound 1.0 µM
# Chain of PAK2 (human) (Q13177 whole entry, looked up): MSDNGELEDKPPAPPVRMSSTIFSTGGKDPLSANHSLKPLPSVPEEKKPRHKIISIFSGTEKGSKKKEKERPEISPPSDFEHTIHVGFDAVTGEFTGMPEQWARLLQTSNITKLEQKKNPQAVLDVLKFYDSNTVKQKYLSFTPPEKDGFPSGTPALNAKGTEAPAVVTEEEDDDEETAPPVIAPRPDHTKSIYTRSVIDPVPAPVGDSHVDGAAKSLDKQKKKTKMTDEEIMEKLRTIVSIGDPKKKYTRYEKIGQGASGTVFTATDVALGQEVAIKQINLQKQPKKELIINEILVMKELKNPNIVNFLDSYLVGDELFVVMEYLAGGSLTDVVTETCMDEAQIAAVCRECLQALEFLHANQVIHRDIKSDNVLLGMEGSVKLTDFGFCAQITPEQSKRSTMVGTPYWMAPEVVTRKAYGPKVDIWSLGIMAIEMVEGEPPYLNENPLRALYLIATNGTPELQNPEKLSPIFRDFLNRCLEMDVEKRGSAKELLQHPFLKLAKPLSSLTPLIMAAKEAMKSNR
# [32] = target: PHKG2 (human) (UniProt P15735); conditions: compound 1.0 µM
# [33] = target: PRKCH (human) (UniProt P24723); conditions: compound 1.0 µM
# [34] = target: RIOK2 (human) (UniProt Q9BVS4); conditions: for kinase still bound, per cent of control: compound 1.0 µM
# Chain of RIOK2 (human) (Q9BVS4 whole entry, looked up): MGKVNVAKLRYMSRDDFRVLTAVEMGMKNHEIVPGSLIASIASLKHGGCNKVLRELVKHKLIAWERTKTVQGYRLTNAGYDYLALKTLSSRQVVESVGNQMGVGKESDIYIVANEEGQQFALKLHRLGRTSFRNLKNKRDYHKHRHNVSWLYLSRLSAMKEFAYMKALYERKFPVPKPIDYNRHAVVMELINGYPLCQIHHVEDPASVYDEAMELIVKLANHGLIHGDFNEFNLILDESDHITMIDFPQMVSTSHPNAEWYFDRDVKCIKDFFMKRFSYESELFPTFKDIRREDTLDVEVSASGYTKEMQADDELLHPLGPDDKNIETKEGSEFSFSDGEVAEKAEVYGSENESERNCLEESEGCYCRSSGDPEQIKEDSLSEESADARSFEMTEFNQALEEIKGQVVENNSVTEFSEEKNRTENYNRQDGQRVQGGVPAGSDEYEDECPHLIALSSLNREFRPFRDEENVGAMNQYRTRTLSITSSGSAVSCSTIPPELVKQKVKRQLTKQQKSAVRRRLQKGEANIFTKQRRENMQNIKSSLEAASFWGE
# [35] = target: RPS6KA5 KD1 (human) (UniProt O75582); conditions: compound 1.0 µM
# [36] = target: SRPK1 (human) (UniProt Q96SB4); conditions: compound 1.0 µM
# [37] = target: SRPK2 (human) (UniProt P78362); conditions: compound 1.0 µM
# [38] = target: STK35 (human) (UniProt Q8TDR2); conditions: compound 1.0 µM
# Chain of STK35 (human) (Q8TDR2 whole entry, looked up): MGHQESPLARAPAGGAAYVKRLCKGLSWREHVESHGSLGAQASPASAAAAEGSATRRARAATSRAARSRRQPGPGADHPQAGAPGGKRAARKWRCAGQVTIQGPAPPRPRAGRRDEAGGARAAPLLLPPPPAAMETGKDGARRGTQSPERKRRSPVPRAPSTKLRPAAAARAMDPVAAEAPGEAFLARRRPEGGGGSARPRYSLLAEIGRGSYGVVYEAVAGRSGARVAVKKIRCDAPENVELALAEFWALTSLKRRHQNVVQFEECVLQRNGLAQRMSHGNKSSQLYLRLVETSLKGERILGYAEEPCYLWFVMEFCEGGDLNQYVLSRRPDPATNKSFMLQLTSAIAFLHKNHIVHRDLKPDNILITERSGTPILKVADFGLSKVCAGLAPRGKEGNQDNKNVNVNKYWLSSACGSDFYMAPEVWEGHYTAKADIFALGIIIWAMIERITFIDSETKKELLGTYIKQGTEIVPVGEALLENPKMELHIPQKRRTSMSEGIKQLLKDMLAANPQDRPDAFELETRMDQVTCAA
# [39] = target: TAOK3 (human) (UniProt Q9H2K8); conditions: compound 1.0 µM
# [40] = target: TNK1 (human) (UniProt Q13470); conditions: compound 1.0 µM
# [41] = target: TNNI3K (human) (UniProt Q59H18); conditions: compound 1.0 µM
# Chain of TNNI3K (human) (Q59H18 whole entry, looked up): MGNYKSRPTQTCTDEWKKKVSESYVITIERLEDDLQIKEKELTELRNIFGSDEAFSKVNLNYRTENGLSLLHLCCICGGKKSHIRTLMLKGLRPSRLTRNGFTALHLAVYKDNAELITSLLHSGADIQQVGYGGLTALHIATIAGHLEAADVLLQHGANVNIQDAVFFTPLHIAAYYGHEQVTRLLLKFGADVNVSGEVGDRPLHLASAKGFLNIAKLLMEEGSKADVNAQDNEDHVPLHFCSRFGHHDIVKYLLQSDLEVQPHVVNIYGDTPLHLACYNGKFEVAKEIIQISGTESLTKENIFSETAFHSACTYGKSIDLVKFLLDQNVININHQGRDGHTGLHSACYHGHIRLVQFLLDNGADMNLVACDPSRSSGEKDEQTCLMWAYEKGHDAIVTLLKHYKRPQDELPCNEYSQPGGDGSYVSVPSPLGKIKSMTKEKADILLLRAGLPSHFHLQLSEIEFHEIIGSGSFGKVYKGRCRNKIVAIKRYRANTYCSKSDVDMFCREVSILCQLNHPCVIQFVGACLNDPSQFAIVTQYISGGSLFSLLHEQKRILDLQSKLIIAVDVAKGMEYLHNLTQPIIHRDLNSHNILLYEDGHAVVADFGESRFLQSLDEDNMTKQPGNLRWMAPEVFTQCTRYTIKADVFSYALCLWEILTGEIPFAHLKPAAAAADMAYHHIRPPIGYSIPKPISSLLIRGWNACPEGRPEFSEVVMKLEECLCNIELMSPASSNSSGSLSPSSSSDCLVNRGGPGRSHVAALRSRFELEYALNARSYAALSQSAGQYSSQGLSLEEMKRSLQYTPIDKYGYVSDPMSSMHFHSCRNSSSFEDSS
# [42] = target: VRK2 (human) (UniProt Q86Y07); conditions: compound 1.0 µM
smiles,measurement,setting,value
CN(C)C/C=C/C(=O)Nc1cccc(C(=O)Nc2ccc(Nc3nccc(-c4cccnc4)n3)cc2)c1,"kinase still bound, per cent of control",[1],100%
same,"kinase still bound, per cent of control",[2],89%
same,"kinase still bound, per cent of control",[3],58%
same,"kinase still bound, per cent of control",[4],61%
same,"kinase still bound, per cent of control",[5],16%
same,"kinase still bound, per cent of control",[6],37%
same,"kinase still bound, per cent of control",[7],75%
same,"kinase still bound, per cent of control",[8],87%
same,"kinase still bound, per cent of control",[9],84%
same,"kinase still bound, per cent of control",[10],99%
same,"kinase still bound, per cent of control",[11],100%
same,"kinase still bound, per cent of control",[12],91%
same,"kinase still bound, per cent of control",[13],80%
same,"kinase still bound, per cent of control",[14],86%
same,"kinase still bound, per cent of control",[15],86%
same,"kinase still bound, per cent of control",[16],100%
same,"kinase still bound, per cent of control",[17],100%
same,"kinase still bound, per cent of control",[18],48%
same,"kinase still bound, per cent of control",[19],18%
same,"kinase still bound, per cent of control",[20],100%
same,"kinase still bound, per cent of control",[21],78%
same,"kinase still bound, per cent of control",[22],83%
same,"kinase still bound, per cent of control",[23],100%
same,"kinase still bound, per cent of control",[24],69%
same,"kinase still bound, per cent of control",[25],100%
same,"kinase still bound, per cent of control",[26],100%
same,"kinase still bound, per cent of control",[27],34%
same,"kinase still bound, per cent of control",[28],100%
same,"kinase still bound, per cent of control",[29],34%
same,"kinase still bound, per cent of control",[30],81%
same,"kinase still bound, per cent of control",[31],87%
same,"kinase still bound, per cent of control",[32],64%
same,"kinase still bound, per cent of control",[33],84%
same,Kd,[34],30 nM
same,"kinase still bound, per cent of control",[34],2.2%
same,"kinase still bound, per cent of control",[35],100%
same,"kinase still bound, per cent of control",[36],50%
same,"kinase still bound, per cent of control",[37],70%
same,"kinase still bound, per cent of control",[38],67%
same,"kinase still bound, per cent of control",[39],94%
same,"kinase still bound, per cent of control",[40],67%
same,"kinase still bound, per cent of control",[41],77%
same,"kinase still bound, per cent of control",[42],98%
Cc1cc(NC(=O)c2cccc(NC(=O)/C=C/CN(C)C)c2)ccc1Nc1nccc(-c2cccnc2)n1,"kinase still bound, per cent of control",[1],77%
same,"kinase still bound, per cent of control",[2],100%
same,"kinase still bound, per cent of control",[3],62%
same,"kinase still bound, per cent of control",[4],92%
same,"kinase still bound, per cent of control",[5],93%
same,"kinase still bound, per cent of control",[6],71%
same,"kinase still bound, per cent of control",[7],77%
same,"kinase still bound, per cent of control",[8],84%
same,"kinase still bound, per cent of control",[9],100%
same,"kinase still bound, per cent of control",[10],81%
same,"kinase still bound, per cent of control",[11],81%
same,"kinase still bound, per cent of control",[12],100%
same,"kinase still bound, per cent of control",[13],100%
same,"kinase still bound, per cent of control",[14],100%
same,"kinase still bound, per cent of control",[15],100%
same,"kinase still bound, per cent of control",[16],100%
same,"kinase still bound, per cent of control",[17],100%
same,"kinase still bound, per cent of control",[18],75%
same,"kinase still bound, per cent of control",[19],4%
same,"kinase still bound, per cent of control",[20],14%
same,"kinase still bound, per cent of control",[21],100%
same,"kinase still bound, per cent of control",[22],100%
same,"kinase still bound, per cent of control",[23],100%
same,"kinase still bound, per cent of control",[24],77%
same,"kinase still bound, per cent of control",[25],100%
same,"kinase still bound, per cent of control",[26],100%
same,"kinase still bound, per cent of control",[27],82%
same,"kinase still bound, per cent of control",[28],100%
same,Kd,[29],4000 nM
same,"kinase still bound, per cent of control",[29],9.6%
same,"kinase still bound, per cent of control",[30],81%
same,"kinase still bound, per cent of control",[31],100%
same,"kinase still bound, per cent of control",[32],89%
same,"kinase still bound, per cent of control",[33],94%
same,Kd,[34],120 nM
same,"kinase still bound, per cent of control",[34],10%
same,"kinase still bound, per cent of control",[35],100%
same,"kinase still bound, per cent of control",[36],99%
same,"kinase still bound, per cent of control",[37],100%
same,"kinase still bound, per cent of control",[38],68%
same,"kinase still bound, per cent of control",[39],66%
same,"kinase still bound, per cent of control",[40],60%
same,"kinase still bound, per cent of control",[41],100%
same,"kinase still bound, per cent of control",[42],97%
